# Key:
# [1] = molecular target: Neuronal acetylcholine receptor; test: Compound was evaluated for functional potency and efficacy at rat Nicotinic acetylcholine receptor in PC12 cells (ganglionic); format: cell-based; conditions: pc-12
# [2] = molecular target: T1, Neuronal acetylcholine receptor subunit alpha-7 (Rattus norvegicus, UniProt Q05941); test: Binding potency for Nicotinic acetylcholine receptor alpha-7 (rat brain)
# [3] = molecular target: T2, Neuronal acetylcholine receptor subunit alpha-7 (Homo sapiens, UniProt P36544); test: Compound was evaluated for functional potencies and efficacies at human Nicotinic acetylcholine receptor alpha7
# [4] = molecular target: T3, Neuronal acetylcholine receptor; alpha4/beta2 (Rattus norvegicus, UniProt P09483+P12390); test: Compound was evaluated for functional potencies and efficacies at rat Nicotinic acetylcholine receptor alpha4-beta2; format: protein-complex assay
# [5] = molecular target: T3, Neuronal acetylcholine receptor; alpha4/beta2; test: Functional potency for Nicotinic acetylcholine receptor alpha4-beta2 (rat brain)
# [6] = molecular target: T3, Neuronal acetylcholine receptor; alpha4/beta2; test: Binding potency for Nicotinic acetylcholine receptor alpha4-beta2 (rat brain)
# Rattus norvegicus [7] = species on record: Rattus norvegicus; test: Compound was evaluated for functional potencies and efficacies at rat nAChR subtype DA release; format: organism-based
# [8] = molecular target: T1, Neuronal acetylcholine receptor subunit alpha-7; test: Functional potency for Nicotinic acetylcholine receptor alpha-7 (rat brain)
# [9] = molecular target: Neuronal acetylcholine receptor; alpha3/beta4 (Homo sapiens, UniProt P30926+P32297); test: Compound was evaluated for functional potencies and efficacies at human Nicotinic acetylcholine receptor subtype IMR-32 (ganglionic); format: protein-complex assay
# [10] = molecular target: T4, Neuronal acetylcholine receptor; alpha4/beta2 (Homo sapiens, UniProt P17787+P43681); test: Compound was evaluated for functional potencies and efficacies at human Nicotinic acetylcholine receptor alpha4-beta2; format: protein-complex assay
# Rattus norvegicus [11] = species on record: Rattus norvegicus; test: compound was evaluated for functional potencies and efficacies at rat nAChR subtype DA release; format: organism-based
# [12] = molecular target: T5, Neuronal acetylcholine receptor (Rattus norvegicus) (UniProt P04757+P09483+P12389+P12390+P12392+P43144+Q9JLB5+P12391+P43143+P20420+Q05941); test: compound was evaluated for functional potency and efficacy at rat Nicotinic acetylcholine receptor subtype DA release at 10 uM
# [13] = molecular target: T5, Neuronal acetylcholine receptor (Rattus norvegicus); test: Compound was evaluated for functional potency and efficacy at rat Nicotinic acetylcholine receptor subtype DA release at 1 uM
# Acetylcholine receptor [14] = molecular target: T6, Acetylcholine receptor (Torpedo californica, UniProt P02710+P02712+P02714+P02718); test: Functional potency for nAChR subtype Alpha1-beta1 delta gamma (torpedo); format: protein-complex assay
# Acetylcholine receptor [15] = molecular target: T6, Acetylcholine receptor; test: Binding potency for nAChR subtype Alpha-1-beta-1-delta gamma(torpedo); format: protein-complex assay
# [16] = molecular target: Neuronal acetylcholine receptor; test: Compound was evaluated for functional potencies and efficacies at rat Nicotinic acetylcholine receptor subtype PC12 (ganglionic); format: cell-based; conditions: pc-12
# [17] = molecular target: T2, Neuronal acetylcholine receptor subunit alpha-7; test: Compound was evaluated for functional potencies and efficacies at human Nicotinic acetylcholine receptor alpha7; low efficacy
# [18] = molecular target: T4, Neuronal acetylcholine receptor; alpha4/beta2; test: Compound was evaluated for functional potencies and efficacies at human Nicotinic acetylcholine receptor alpha4-beta2; low efficacy; format: protein-complex assay
# [19] = molecular target: T3, Neuronal acetylcholine receptor; alpha4/beta2; test: Compound was evaluated for functional potencies and efficacies at rat Recombinant Nicotinic acetylcholine receptor alpha4-beta2; low efficacy; format: protein-complex assay
# [20] = molecular target: Muscle-type nicotinic acetylcholine receptor; test: Compound was evaluated for functional potencies and efficacies at human muscle type Nicotinic acetylcholine receptor in TE671 cells; format: cell-based; conditions: te-671
# [21] = molecular target: T2, Neuronal acetylcholine receptor subunit alpha-7; test: Ability to block activation of acetylcholine-stimulated currents in human alpha-7 homomers expressed in oocytes; format: functional, cell-based, Oocyte
# Acetylcholine receptor [22] = molecular target: T6, Acetylcholine receptor
# Acetylcholine receptor [23] = molecular target: T6, Acetylcholine receptor; remark: listed apart in the source
# [24] = molecular target: T2, Neuronal acetylcholine receptor subunit alpha-7; test: (§1) Affinity for Nicotinic acetylcholine receptor alpha7
# [25] = molecular target: T1, Neuronal acetylcholine receptor subunit alpha-7; test: as §1
# TE-671 = test: Stimulation of ion flux in TE671 cells; format: functional, cell-based; conditions: Homo sapiens
# T4 sequence (P17787 whole entry): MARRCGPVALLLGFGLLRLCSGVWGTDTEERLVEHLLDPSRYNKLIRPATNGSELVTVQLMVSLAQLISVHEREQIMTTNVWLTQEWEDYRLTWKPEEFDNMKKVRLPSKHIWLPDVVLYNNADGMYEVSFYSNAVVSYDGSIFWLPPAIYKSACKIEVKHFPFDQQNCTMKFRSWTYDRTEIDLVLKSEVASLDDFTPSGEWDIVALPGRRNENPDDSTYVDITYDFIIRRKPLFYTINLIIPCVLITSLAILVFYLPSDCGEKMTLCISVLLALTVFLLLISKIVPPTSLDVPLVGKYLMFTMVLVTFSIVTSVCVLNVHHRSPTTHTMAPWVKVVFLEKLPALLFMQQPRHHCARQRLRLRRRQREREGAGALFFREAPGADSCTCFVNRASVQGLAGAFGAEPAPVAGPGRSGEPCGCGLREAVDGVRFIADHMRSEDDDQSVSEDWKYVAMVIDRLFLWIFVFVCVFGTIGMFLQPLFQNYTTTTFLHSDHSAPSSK
# T4 sequence (P43681 whole entry): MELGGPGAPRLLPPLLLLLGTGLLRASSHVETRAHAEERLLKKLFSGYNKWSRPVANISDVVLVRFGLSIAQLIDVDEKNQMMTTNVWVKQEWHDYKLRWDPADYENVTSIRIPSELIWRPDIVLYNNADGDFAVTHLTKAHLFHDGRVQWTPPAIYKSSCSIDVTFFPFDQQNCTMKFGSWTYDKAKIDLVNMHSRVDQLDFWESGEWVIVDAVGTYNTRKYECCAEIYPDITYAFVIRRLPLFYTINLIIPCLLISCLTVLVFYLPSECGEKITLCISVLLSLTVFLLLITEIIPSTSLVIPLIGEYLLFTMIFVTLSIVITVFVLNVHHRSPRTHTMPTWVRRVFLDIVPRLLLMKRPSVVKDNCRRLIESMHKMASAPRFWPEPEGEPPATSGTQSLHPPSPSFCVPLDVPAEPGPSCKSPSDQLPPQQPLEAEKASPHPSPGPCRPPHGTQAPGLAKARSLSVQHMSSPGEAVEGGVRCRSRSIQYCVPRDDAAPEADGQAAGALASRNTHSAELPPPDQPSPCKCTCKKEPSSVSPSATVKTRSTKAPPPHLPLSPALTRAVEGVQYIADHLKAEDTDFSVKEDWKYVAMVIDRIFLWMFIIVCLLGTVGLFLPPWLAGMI
# T6 sequence (P02710 whole entry): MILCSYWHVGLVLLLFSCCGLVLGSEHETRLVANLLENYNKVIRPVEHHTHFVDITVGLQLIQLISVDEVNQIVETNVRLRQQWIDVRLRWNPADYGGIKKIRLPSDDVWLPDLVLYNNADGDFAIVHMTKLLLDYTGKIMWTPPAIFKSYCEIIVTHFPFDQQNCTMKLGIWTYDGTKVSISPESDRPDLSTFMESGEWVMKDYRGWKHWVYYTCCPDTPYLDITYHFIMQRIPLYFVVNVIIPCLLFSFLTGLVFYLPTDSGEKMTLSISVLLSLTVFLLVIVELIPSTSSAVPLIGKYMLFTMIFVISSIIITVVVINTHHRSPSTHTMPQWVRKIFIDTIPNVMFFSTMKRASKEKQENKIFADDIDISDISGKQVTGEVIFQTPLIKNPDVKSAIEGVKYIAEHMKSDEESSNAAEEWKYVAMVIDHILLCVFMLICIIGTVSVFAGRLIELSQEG
# T6 sequence (P02712 whole entry): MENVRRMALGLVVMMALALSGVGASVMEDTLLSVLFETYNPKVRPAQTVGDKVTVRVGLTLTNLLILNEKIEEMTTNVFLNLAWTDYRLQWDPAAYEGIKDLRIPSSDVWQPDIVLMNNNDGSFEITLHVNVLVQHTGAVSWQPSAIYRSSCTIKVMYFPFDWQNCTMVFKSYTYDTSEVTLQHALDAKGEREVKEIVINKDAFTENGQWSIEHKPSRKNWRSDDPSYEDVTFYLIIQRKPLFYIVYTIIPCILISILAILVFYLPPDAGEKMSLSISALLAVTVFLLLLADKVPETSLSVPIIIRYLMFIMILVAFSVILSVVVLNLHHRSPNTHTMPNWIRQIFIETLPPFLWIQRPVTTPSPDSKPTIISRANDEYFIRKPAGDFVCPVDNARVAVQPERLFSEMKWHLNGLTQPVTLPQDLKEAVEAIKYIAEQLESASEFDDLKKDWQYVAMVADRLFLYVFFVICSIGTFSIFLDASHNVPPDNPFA
# T6 sequence (P02718 whole entry): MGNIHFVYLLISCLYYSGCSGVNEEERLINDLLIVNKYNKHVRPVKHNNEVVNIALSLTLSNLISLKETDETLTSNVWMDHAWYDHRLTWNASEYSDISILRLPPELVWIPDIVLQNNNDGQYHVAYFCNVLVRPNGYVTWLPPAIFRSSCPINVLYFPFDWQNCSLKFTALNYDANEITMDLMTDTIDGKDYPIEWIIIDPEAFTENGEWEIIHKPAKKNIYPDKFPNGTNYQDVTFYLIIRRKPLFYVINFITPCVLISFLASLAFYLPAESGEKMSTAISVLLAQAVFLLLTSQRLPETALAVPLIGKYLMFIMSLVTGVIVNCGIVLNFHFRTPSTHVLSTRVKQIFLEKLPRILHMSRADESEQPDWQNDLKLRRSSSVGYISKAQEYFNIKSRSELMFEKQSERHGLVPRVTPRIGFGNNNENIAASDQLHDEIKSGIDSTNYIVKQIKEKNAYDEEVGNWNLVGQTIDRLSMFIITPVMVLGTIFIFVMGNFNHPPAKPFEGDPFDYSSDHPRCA
# T6 sequence (P02714 whole entry): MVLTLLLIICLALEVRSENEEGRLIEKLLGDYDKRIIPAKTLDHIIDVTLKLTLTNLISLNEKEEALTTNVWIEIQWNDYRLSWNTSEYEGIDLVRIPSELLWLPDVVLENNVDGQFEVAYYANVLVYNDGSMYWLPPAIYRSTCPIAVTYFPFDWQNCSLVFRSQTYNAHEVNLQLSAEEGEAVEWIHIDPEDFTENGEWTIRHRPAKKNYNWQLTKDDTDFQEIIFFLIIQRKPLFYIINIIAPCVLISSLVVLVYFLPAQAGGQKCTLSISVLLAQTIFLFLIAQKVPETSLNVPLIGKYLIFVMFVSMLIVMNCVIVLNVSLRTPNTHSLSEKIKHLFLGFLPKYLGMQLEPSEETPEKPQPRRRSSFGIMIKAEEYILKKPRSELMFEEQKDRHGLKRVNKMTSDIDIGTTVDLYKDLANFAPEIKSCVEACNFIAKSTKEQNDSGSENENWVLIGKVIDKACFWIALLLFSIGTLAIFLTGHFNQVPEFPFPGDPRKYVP
# T1 sequence (Q05941 whole entry): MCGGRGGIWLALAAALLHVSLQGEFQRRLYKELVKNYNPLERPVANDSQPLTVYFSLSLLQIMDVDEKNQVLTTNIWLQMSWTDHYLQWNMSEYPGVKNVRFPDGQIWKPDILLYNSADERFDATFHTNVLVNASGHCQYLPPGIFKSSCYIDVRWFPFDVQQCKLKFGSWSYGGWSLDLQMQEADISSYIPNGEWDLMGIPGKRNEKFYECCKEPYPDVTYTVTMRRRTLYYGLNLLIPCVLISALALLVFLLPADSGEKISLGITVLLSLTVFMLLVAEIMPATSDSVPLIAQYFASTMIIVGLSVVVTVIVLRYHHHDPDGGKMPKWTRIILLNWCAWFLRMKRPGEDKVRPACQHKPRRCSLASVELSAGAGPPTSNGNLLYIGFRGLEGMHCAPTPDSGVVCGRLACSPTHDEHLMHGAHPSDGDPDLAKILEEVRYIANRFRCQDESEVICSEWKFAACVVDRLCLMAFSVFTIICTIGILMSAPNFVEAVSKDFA
# T3 sequence (P09483 whole entry): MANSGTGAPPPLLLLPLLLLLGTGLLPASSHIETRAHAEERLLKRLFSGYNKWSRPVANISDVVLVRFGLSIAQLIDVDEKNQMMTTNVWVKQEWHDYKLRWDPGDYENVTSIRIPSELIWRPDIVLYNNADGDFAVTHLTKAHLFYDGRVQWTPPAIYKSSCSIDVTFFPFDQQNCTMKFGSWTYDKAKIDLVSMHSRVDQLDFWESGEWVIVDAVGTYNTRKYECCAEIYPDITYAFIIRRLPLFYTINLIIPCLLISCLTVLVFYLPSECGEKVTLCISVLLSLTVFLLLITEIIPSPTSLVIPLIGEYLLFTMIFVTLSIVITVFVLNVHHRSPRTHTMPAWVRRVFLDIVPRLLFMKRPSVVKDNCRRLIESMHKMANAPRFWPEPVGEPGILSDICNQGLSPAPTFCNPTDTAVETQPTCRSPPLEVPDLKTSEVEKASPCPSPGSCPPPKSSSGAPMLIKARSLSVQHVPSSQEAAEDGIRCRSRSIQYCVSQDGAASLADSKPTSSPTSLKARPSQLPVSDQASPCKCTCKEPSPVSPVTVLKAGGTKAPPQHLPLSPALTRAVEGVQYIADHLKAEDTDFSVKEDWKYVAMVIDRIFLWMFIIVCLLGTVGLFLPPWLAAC
# T3 sequence (P12390 whole entry): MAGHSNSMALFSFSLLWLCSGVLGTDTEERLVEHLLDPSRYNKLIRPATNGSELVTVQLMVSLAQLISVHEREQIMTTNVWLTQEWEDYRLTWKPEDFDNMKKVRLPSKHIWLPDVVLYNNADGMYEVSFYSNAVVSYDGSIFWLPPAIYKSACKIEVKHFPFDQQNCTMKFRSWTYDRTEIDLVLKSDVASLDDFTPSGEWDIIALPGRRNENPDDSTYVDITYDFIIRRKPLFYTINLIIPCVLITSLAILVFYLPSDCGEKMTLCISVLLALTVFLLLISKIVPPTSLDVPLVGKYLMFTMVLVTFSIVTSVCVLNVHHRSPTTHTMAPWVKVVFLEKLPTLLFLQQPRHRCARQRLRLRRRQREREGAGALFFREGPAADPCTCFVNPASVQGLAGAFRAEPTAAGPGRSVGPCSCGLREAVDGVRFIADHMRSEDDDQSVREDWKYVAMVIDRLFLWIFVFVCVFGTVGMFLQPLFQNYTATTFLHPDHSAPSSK
smiles,measurement,setting,value
CC(=O)C1=CC[N+](C)(C)CC1,EC50,[1],100 µM
CO[C@@H]1CC=C2CCN3CCC4=C(CC(=O)OC4)[C@@]23C1,Ki,[2],0.148 µM
same,EC50,[3],19.6 µM
same,EC50,[4],0.37 µM
same,EC50,[5],0.7 µM
same,Ki,[6],0.04 nM
same,EC50,Rattus norvegicus [7],0.03 µM
same,EC50,[8],8.9 µM
c1cncc(OC[C@@H]2CCN2)c1,EC50,[3],8.9 µM
same,EC50,[9]; read-out: EC50,0.7 µM
same,EC50,[10],0.7 µM
same,EC50,Rattus norvegicus [11],0.003 µM
CN1CCC[C@H]1COc1cccnc1,Potency,[12],90%
same,Potency,[13],55%
Clc1ccc(C2CC3CCC2N3)cn1 (racemic) [EPIBATIDINE],EC50,[3],3.5 µM
same,EC50,Rattus norvegicus [7],0.037 µM
Cc1cc([C@@H]2CCCN2C)on1 [ABT-418],Ki,[2],> 10 µM
same,EC50,[3],264 µM
same,EC50,[9]; read-out: EC50,64 µM
same,EC50,[4],6 µM
same,EC50,[5],10 µM
same,Ki,[6],7.89 nM
same,EC50,Rattus norvegicus [7],0.38 µM
same,EC50,Acetylcholine receptor [14],411 µM
same,Ki,Acetylcholine receptor [15],> 10 µM
same,EC50,[8],264 µM
O=c1cccc2n1C[C@@H]1CNC[C@H]2C1 [CYTISINICLINE],EC50,[3],71 µM
same,EC50,[9]; read-out: EC50,26 µM
same,EC50,[10],38 µM
same,EC50,Rattus norvegicus [7],0.06 µM
same,EC50,[16],10 µM
C[N+]1(C)CCN(c2ccccc2)CC1 [DIMETHYLPHENYLPIPERAZINIUM],EC50,[3],95 µM
same,EC50,[10],2.5 µM
same,EC50,Rattus norvegicus [7],4.3 µM
COc1ccc(/C=C2\CCCN=C2c2cccnc2)c(OC)c1 [GTS-21],EC50,[17],Low efficacy
same,EC50,[9],Low efficacy
same,EC50,[18],Low efficacy
same,EC50,[19],Low efficacy
same,EC50,Rattus norvegicus [7],10 µM
CNC1(C)C2CCC(C2)C1(C)C (centres undefined) [MECAMYLAMINE],EC50,[20],30 µM
same,IC50,[21],1.8 µM
CN1CCC[C@H]1c1cccnc1 [NICOTINE],EC50,Rattus norvegicus [7],0.04 µM
same,EC50,Acetylcholine receptor [22],60 µM
same,Ki,Acetylcholine receptor [23],> 10 µM
Cc1ncccc1OC[C@@H]1CCCN1 [POZANICLINE],Ki,[24],> 10 µM
same,EC50,[17],Low efficacy
same,EC50,[9],Low efficacy
same,EC50,[18],Low efficacy
same,EC50,Rattus norvegicus [7],1.1 µM
CNCC/C=C/c1cccnc1 [RIVANICLINE],Ki,[25],36 µM
same,EC50,[9]; read-out: EC50,46 µM
same,EC50,[10],4.3 µM
same,EC50,Rattus norvegicus [7],0.94 µM
C[N+](C)(C)CCOC(=O)CCC(=O)OCC[N+](C)(C)C [SUXAMETHONIUM],EC50,TE-671,30 µM
